Like-named read-outs stand apart in the source and are kept apart here.
Columns and labels:
CYP 3A4 = target: T1, CYP 3A4 (Homo sapiens, UniProt P08684); test: CYP inhibition in human liver microsome; type: in vitro ADME; settings: human liver microsomes, substrate midazolam (2 μM); compounds diluted 1:3 starting at 50 μM; read-out: IC50 in CYP isozyme 3A4
T1 construct: from tissue; host or cells: human liver microsomes
Experimental: (§1) Test compounds were evaluated for CYP inhibition using human liver microsomes (HLM). Test compounds were 1:3 serially diluted starting at 50 μM to generate 7 different concentrations. After incubation of diluted test compounds with HLM, a substrate cocktail composed of phenacetin (10 μM), amodiaquine (2 μM), diclofenac (5 μM), s-mephenytoin (30 μM), dextromethorphan (5 μM), and midazolam (2 μM) was added to check the remaining CYP activity for CYP 1A2, 2C8, 2C9, 2C19, 2D6 and 3A4. The CYP activity was measured by detecting the peak area of individual metabolites of know CYP substrates using LC/MS/MS. A percentage of inhibition of CYP was calculated at each final concentration of test compound, through which an IC50 was fitted to represent the inhibition potential.

CYP 1A2 = target: T2, CYP 1A2 (Homo sapiens, UniProt P05177); test: CYP inhibition in human liver microsome; type: in vitro ADME; settings: human liver microsomes, substrate phenacetin (10 μM); compounds diluted 1:3 starting at 50 μM; read-out: IC50 in CYP isozyme 1A2
T2 construct: from tissue; host or cells: human liver microsomes
T2 sequence (P05177 1-516): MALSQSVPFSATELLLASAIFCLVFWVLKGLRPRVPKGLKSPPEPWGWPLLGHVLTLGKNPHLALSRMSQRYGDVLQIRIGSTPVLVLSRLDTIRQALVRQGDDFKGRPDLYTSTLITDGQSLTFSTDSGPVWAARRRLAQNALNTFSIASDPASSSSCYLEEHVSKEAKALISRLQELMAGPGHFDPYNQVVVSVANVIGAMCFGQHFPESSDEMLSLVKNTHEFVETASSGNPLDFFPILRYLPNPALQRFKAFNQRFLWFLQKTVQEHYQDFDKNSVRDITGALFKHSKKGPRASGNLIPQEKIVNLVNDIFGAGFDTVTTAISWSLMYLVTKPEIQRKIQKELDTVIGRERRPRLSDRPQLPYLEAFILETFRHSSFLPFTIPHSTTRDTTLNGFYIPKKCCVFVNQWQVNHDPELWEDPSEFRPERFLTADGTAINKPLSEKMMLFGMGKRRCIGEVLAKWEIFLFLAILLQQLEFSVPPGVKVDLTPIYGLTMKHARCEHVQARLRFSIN
Experimental: as §1

CYP 2C19 = target: T3, CYP 2C19 (Homo sapiens, UniProt P33261); test: CYP inhibition in human liver microsome; type: in vitro ADME; settings: human liver microsomes, substrate s-mephenytoin (30 μM); compounds diluted 1:3 starting at 50 μM; read-out: IC50 in CYP isozyme 2C19
T3 construct: from tissue; host or cells: human liver microsomes
Experimental: as §1

CYP 2C9 = target: T4, CYP 2C9 (Homo sapiens, UniProt P11712); test: CYP inhibition in human liver microsome; type: in vitro ADME; settings: human liver microsomes, substrate diclofenac (5 μM); compounds diluted 1:3 starting at 50 μM; read-out: IC50 in CYP isozyme 2C9
T4 construct: from tissue; host or cells: human liver microsomes
Experimental: as §1

CYP 2D6 = target: T5, CYP 2D6 (Homo sapiens, UniProt P10635); test: CYP inhibition in human liver microsome; type: in vitro ADME; settings: human liver microsomes, substrate dextromethorphan (5 μM); compounds diluted 1:3 starting at 50 μM; read-out: IC50 in CYP isozyme 2D6
T5 construct: from tissue; host or cells: human liver microsomes
Experimental: as §1

Autotaxin = target: T6, Autotaxin (Homo sapiens, UniProt Q13822); test: LPA formation in pooled human plasma (ex vivo autotaxin inhibition); type: biochemical; settings: 2 hours incubation
T6 construct: from tissue; host or cells: pooled human plasma
Method in brief: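 Pooled human plasma incubated 2 h with various compound concentrations; LPA 18:2 and 20:4 quantified by LC/MS/MS (negative-ion MRM, LPA17:0 internal standard) after butanol extraction. Inhibition of LPA formation relative to untreated plasma; IC50 by non-linear regression.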

[1] = LPA 18:2 by LC/MS/MS, read-out: LPA formation (18:2) (IC50)
[2] = LPA 20:4 by LC/MS/MS, read-out: LPA formation (20:4) (IC50)

T1 sequence (P08684 whole entry): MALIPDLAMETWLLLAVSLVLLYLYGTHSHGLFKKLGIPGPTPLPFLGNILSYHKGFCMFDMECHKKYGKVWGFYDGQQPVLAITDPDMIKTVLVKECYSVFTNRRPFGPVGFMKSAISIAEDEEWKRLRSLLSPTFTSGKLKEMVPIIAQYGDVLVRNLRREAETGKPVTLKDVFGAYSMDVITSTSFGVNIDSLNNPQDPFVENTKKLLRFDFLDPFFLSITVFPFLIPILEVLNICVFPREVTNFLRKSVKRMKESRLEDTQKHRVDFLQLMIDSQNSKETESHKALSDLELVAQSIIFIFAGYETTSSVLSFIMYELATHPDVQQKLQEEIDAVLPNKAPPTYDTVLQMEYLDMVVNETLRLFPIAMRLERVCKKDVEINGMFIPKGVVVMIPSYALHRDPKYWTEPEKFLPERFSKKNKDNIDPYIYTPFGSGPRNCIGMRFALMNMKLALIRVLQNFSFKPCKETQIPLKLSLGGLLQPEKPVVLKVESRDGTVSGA
T4 sequence (P11712 whole entry): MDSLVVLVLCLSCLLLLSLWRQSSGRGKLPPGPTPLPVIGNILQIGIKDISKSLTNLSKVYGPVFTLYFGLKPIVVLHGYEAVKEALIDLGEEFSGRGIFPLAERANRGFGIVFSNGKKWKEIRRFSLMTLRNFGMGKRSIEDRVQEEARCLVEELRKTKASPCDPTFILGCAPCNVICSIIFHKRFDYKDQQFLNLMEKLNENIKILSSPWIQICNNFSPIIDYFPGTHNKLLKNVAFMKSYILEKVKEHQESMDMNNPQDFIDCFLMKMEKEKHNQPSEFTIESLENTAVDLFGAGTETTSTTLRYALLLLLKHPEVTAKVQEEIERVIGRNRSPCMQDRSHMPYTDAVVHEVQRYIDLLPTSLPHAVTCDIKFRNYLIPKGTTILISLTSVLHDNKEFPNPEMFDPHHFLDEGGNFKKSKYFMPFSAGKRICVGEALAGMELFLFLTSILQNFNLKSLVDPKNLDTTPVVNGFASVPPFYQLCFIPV
T5 sequence (P10635 whole entry): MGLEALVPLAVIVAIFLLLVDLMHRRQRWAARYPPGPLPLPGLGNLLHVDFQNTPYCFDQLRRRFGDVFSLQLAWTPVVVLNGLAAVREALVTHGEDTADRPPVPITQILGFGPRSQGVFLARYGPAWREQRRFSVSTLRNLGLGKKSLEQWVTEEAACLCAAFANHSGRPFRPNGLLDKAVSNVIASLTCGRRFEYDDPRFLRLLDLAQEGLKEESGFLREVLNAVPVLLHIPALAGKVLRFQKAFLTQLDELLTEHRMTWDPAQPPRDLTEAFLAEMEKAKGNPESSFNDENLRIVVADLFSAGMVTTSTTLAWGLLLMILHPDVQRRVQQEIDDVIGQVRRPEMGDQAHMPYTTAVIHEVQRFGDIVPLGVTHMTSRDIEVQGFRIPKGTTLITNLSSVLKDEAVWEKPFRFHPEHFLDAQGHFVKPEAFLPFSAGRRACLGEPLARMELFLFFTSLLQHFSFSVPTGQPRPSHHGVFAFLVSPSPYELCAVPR
T3 sequence (P33261 whole entry): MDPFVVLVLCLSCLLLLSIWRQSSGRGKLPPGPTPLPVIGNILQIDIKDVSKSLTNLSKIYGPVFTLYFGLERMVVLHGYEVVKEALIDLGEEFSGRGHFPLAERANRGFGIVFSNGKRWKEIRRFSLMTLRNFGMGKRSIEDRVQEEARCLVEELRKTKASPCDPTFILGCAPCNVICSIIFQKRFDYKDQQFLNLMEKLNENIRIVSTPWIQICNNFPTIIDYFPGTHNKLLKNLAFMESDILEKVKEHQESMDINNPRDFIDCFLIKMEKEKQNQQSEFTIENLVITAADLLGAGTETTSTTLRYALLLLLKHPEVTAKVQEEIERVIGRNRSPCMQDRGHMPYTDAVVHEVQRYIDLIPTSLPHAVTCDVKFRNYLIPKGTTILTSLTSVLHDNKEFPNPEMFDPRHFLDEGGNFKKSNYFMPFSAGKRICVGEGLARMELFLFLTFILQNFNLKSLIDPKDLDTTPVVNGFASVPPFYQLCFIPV

| IC50 (CYP 3A4) [µM] | IC50 (CYP 1A2) [µM] | IC50 (CYP 2C19) [µM] | IC50 (CYP 2C9) [µM] | IC50 (CYP 2D6) [µM] | IC50 (Autotaxin; [1]) [µM] | IC50 (Autotaxin; [2]) [µM] | SMILES |
| --- | --- | --- | --- | --- | --- | --- | --- |
| > 50 | > 50 | 45.5 | 17.3 | > 50 | ≤ 0.1 | ≤ 0.1 | CCc1nn2cc(F)c(N3CCN(CC(=O)N4CC(O)C4)CC3)cc2c1N(C)c1nc(-c2ccc(F)cc2)c(C#N)s1 [Example 101, 2-[[2-ethyl-6-fluoro-5-[4-[2-(3-hydroxyazetidin-1-yl)-2-oxo-ethyl]piperazin-1-yl]pyrazolo[1,5-a]pyridin-3-yl]-methyl-amino]-4-(4-fluorophenyl)thiazole-5-carbonitrile] |
| > 50 | > 50 | > 50 | 15.9 | > 50 | ≤ 0.1 | ≤ 0.1 | CCn1nc2ncc(N3CC4(CN(C(=O)C5CCOCC5)C4)C3)cc2c1N(C)c1nc(-c2ccc(F)cc2)c(C#N)s1 [Compound 118, 2-((2-ethyl-5-(6-(tetrahydro-2H-pyran-4-carbonyl)-2,6-diazaspiro[3.3]heptan-2-yl)-2H-pyrazolo[3,4-b]pyridin-3-yl)(methyl)amino)-4-(4-fluorophenyl)thiazole-5-carbonitrile] |
| 13.5 | > 50 | 40.2 | 16.7 | > 50 |  |  | CCc1nc2c(C)cc(N3CCN(CC(=O)N4CC(O)C4)CC3)cn2c1N(C)c1nc(-c2ccc(F)cc2)c(C#N)s1 [GLPG1690] |
| > 50 | 13.9 | 11.9 | 5.69 | > 50 | ≤ 0.1 | ≤ 0.1 | CCc1nn2cc(F)c(N3CC4(CN(C(=O)[C@H]5CCOC5)C4)C3)cc2c1N(C)c1nc(-c2ccc(F)cc2)c(C#N)s1 [Example 102, 2-[[2-ethyl-6-fluoro-5-[2-[(3S)-tetrahydrofuran-3-carbonyl]-2,6-diazaspiro[3.3]heptan-6-yl]pyrazolo[1,5-a]pyridin-3-yl]-methyl-amino]-4-(4-fluorophenyl)thiazole-5-carbonitrile] |

Source: patent US10711000B2 (Fronthera U.S. Pharmaceuticals LLC, priority 2018, dated 2020)
